“Also recorded” adds a separate entry of the source.
Legend:
Format in all cases: cell-based
[1] = test system: HepG2 cells (human hepatosarcoma); test: RT-CES system cell proliferation/cytotoxicity, HepG2; conditions: for IC50: Homo sapiens, HepG2, time point of maximum inhibition
Text: (§1) The RT-CES system comprises three components, an electronic sensor analyzer, a device station and 16× or 96× microtiter plate devices. Microelectrode sensor array was fabricated on glass slides with lithographical microfabrication methods and the electrode-containing slides are assembled to plastic trays to form electrode-containing wells. Each 16× (or 96×) microtiter plate device used in RT-CES system comprises up to 16 (or 96) such electrode-containing wells. The device station receives the 16× or 96× microtiter plate devices and is capable of electronically switching any one of the wells to the sensor analyzer for impedance measurement. In operation, the devices with cells cultured in the wells are placed into a device station that is located inside an incubator. Electrical cables connect the device station to the sensor analyzer. Under the RT-CES software control, the sensor analyzer can automatically select wells to be measured and continuously conduct impedance measurements. The impedance data from the analyzer is transferred to a computer, analyzed and processed by the integrated software.
(§2) To quantify cell status based on the measured cell-electrode impedance, a parameter termed Cell Index is derived, according to
(§3) [formula] where Rb(f) and Rcell(f) are the frequency dependent electrode resistances (a component of impedance) without cells or with cell present, respectively. N is the number of the frequency points at which the impedance is measured. Thus, Cell Index is a quantitative measure of the status of the cells in an electrode-containing well. Under the same physiological conditions, more cells attached on to the electrodes leads to larger Rcell(f) value, leading to a larger value for Cell Index. Furthermore, for the same number of cells present in the well, a change in the cell status such as morphology will lead to a change in the Cell Index. For example, an increase in cell adhesion or cell spreading leads to larger cell-electrode contact area which will lead to an increase in Rcell(f) and thus a larger value for Cell Index. The Cell Index may also be calculated using a formula different from the one described here. Other methods for calculating the Cell Index based on impedance measurement can be found in PCT application number PCT/US04/37696, fined on Nov. 12, 2004, PCT application number PCT/US05/04481, filed on Feb. 9, 2005, U.S. patent application Ser. No. 10/987,732, filed on Nov. 12, 2004, and U.S. patent application Ser. No. 11/055,639, filed on Feb. 9, 2005.
Different types of human cancer cells, including NCI-H460 (non-small cell lung cancer cells), MV522 SW (non-small cell lung cancer cells), MCF7 (breast cancer cells), A549 (non-small cell lung cancer cells), PC3 (prostate cancer cells), A431 (epidermoid cancer cells), HT1080 (fibrosarcoma cells), MDA.MB2321 (breast cancer cells), HT29 (colon cancer cells), HCC2998 (colon cancer cells), OVCAR4 (ovarian cancer cells), A2780 (ovarian cancer cells) and HepG2 (human hepatosarcoma) with different numbers (4000 to 20,000 per well) were seeded into 16× or 96× microtiter device and monitored by RT-CES™ system. The cells were allowed to grow for about 24 hours prior to the addition of dibenzyl trisulfide dissolved in DMSO solution (final DMSO concentration: 0.2%; final dibenzyl trisulfide concentration: between 1.5625 μM and 100 μM). The cell-electrode impedance was continuously measured and the corresponding, time dependent cell-index values were derived and recorded.
HepG2 cells (human hepatosarcoma cells) were seeded into wells of 16× or 96× microtiter plate devices (electronic plates, i.e., the plates comprise microelectrode sensor arrays in the wells of the plate) with an initial seeding density of 15,000 cells per well and were pre-incubated in incubator under standard cell culture conditions for about 22 hrs. Dibenzyl trisulfide solution in DMSO was added into wells following the incubation period. […]

A2780 cells = test: RT-CES system cell proliferation/cytotoxicity IC50, A2780; conditions: Homo sapiens, time point of maximum inhibition
Text: as §1, §2, §3
A2780 cells (human […]) were seeded into wells of 16× or 96× microtiter plate devices (electronic plates, i.e., the plates comprise microelectrode sensor arrays in the wells of the plate) with an initial seeding density of 20,000 cells per well and were pre-incubated in incubator under standard cell culture conditions for about 16.4 hrs. Dibenzyl trisulfide solution in DMSO was added into wells following the incubation period. The cell status was monitored prior to and after the compound addition using RT-CES system. The cell indexes of different wells were between 2.2 and 3.7 just before the compound addition. […] The cell index was normalized against the cell index values at a time point just after compound addition (about 17.5 hrs after cell seeding).
For the assay performed on the RT-CES system, the cells were seeded into the 16× or 96× microtiter plate devices (electronic plates, i.e., the plates comprise microelectrode sensor arrays in the wells of the plate) at the seeding density ranging from 5000 cells/well to 15,000 cells/well. The cells were incubated at 5% CO2 and 37° C. for overnight till the cell indices reached the growth phase where the cell index was between 0.8 and 1.2. Serially diluted compounds were then added to the cells followed by dynamic monitoring of the effect of the compounds on the cell proliferation and cytotoxicity. […]

[2] = test system: MDA-MB231 (M231, human breast cancer cell line); test: RT-CES system cell proliferation/cytotoxicity IC50, MDA-MB231; conditions: MDA-MB-231, time point of maximum inhibition
Text: as §1, §2, §3
Dibenzyl trisulfide solution in DMSO was added into wells following the incubation period. The cell status was monitored prior to and after the compound addition using RT-CES system. The cell indexes of different wells were between 0.65 and 0.82 just before the compound addition. […] The cell index was normalized against the cell index values at a time point just after compound addition (about 19.6 hrs after cell seeding).
For the assay performed on the RT-CES system, the cells were seeded into the 16× or 96× microtiter plate devices (electronic plates, i.e., the plates comprise microelectrode sensor arrays in the wells of the plate) at the seeding density ranging from 5000 cells/well to 15,000 cells/well. The cells were incubated at 5% CO2 and 37° C. for overnight till the cell indices reached the growth phase where the cell index was between 0.8 and 1.2. Serially diluted compounds were then added to the cells followed by dynamic monitoring of the effect of the compounds on the cell proliferation and cytotoxicity. The time-dependent IC50 values for each derivative were calculated based the dose responses of cell index value at different time points after compound treatment.
The anticancer potency of a DBTS derivative, ACEA100108 was tested in 7 cancer cell lines on the […]. The cell lines were HT1080, H460, OVCAR4, MCF7, MDA-MB231, HepG2, and A2780. […]

In the case of Clc1ccccc1CSSSCc1ccccc1Cl [ACEA100115, Di(o-chlorobenzyl)trisulfide], the IC50 [1] is reported as greater than 50 µM, the IC50 (A2780 cells) is reported as 0.75 µM and the IC50 [2] is reported as 1.06 µM.
For c1ccc(CSSSCc2ccccc2)cc1 [DBTS, Dibenzyl trisulfide], the IC50 [1] was greater than 50 µM, the “Effect on HepG2 cell proliferation (cell index)” value ([1]; within the exposing dose range (1.5625-100 μM)) was “did not demonstrate anti-proliferation ability; also recorded: exhibits no inhibition effect on HepG2 cell proliferation and no cytotoxic effect” and the IC50 (A2780 cells) was 0.4 µM. The IC50 [2] was 2.4 µM.
Work on FC(F)(F)c1cccc(CSSSCc2cccc(C(F)(F)F)c2)c1 [ACEA100117, Di(m-trifluoromethylbenzyl)trisulfide] yielded an IC50 [1] greater than 50 µM, an IC50 (A2780 cells) of 11.8 µM and an IC50 [2] of 41 µM.
Work on Fc1ccc(CSSSCc2ccc(F)cc2)cc1 [ACEA100108, Di(p-fluorobenzyl)trisulfide] yielded an IC50 [1] greater than 50 µM, an IC50 (A2780 cells) of 0.5 µM and an IC50 [2] of 3.05 µM.
Clc1ccc(CSSSCc2ccc(Cl)cc2)cc1 [ACEA100118, Di(p-chlorobenzyl)trisulfide] showed an IC50 [1] greater than 50 µM, an IC50 (A2780 cells) of 0.7 µM and an IC50 [2] of 2.3 µM.
Molecule Cc1cccc(CSSSCc2cccc(C)c2)c1 [ACEA100116, di(m-methylbenzyl)trisulfide] has an IC50 [1] greater than 50 µM, an IC50 (A2780 cells) of 0.75 µM and an IC50 [2] of 1.06 µM.

Reference: patent US8334316B2, “Substituted organosulfur compounds and methods of using thereof” (ACEA Biosciences, Inc., priority 2004, dated 2012)
